# Reference: patent publication US10343992B2, “1-cyano-pyrrolidine compounds as USP30 inhibitors” (MISSION THERAPEUTICS LIMITED, priority 2015, dated 2019)
# Target: USP30 (Homo sapiens (Human), UniProt Q70CQ3)
# Experiment: USP30 biochemical FP or FI IC50 assay
# Conditions: read-out: IC50 range
# Procedure, shortened: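 Human USP30 preincubated 30 min at room temperature with compound (8-point series, 100 µM top final) in Tris pH 7.5, Tween 20, BSA, 5 mM β-mercaptoethanol, in duplicate. FP format: 50 nM TAMRA-peptide–isopeptide-ubiquitin substrate, ex 540/em 590. FI format: 100 nM ubiquitin-rhodamine 110, ex 487/em 535. Both read at 0 and after 2 h at room temperature.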
# Sequence of USP30 (Q70CQ3 57-517): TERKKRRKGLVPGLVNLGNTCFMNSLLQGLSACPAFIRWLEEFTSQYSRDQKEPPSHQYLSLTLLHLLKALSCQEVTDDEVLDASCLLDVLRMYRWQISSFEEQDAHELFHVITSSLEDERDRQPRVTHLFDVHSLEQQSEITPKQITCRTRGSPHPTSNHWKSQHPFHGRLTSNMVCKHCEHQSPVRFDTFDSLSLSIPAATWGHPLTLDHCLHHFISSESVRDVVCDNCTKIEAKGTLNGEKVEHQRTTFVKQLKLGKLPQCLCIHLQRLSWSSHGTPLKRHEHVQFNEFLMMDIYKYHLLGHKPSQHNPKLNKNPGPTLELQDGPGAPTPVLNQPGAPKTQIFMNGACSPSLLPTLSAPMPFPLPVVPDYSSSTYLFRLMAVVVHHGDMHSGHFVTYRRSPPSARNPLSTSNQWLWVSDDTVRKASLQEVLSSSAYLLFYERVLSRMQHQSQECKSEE
row,IC50 [µM],Structure (SMILES)
1,< 0.1,"Cn1cc(-c2ccc3[nH]c(C(=O)N[C@@H]4CCN(C#N)C4)cc3c2)cn1 [Example 130, (R)-N-(1-cyanopyrrolidin-3-yl)-5-(1-methyl-1H-pyrazol-4-yl)-1H-indole-2-carboxamide]"
2,0.1 to 1,"CCn1cc(-c2cnc(C(=O)N[C@@H]3CCN(C#N)C3)cc2C)cn1 [Example 132, (R)-N-(1-cyanopyrrolidin-3-yl)-5-(1-ethyl-1H-pyrazol-4-yl)-4-methylpicolinamide]"
3,0.1 to 1,"N#CN1CC[C@@H](NC(=O)N2CC(Oc3ccccc3)C2)C1 [Example 133, (R)-N-(1-cyanopyrrolidin-3-yl)-3-phenoxyazetidine-1-carboxamide]"
4,0.1 to 1,"N#CN1CC[C@@H](NC(=O)N2CC(c3nc4ccccc4[nH]3)C2)C1 [Example 134, (R)-3-(1H-benzo[d]imidazol-2-yl)-N-(1-cyanopyrrolidin-3-yl)azetidine-1-carboxamide]"
5,0.1 to 1,"N#CN1CC[C@@H](NC(=O)N2CCN(c3ccccc3)CC2)C1 [Example 135, (R)-N-(1-cyanopyrrolidin-3-yl)-4-phenylpiperazine-1-carboxamide]"
6,0.1 to 1,"N#CN1CC[C@@H](NC(=O)N2CCOC(c3ccccc3)C2)C1 (stereo partly drawn) [Example 136, N-((R)-1-cyanopyrrolidin-3-yl)-2-phenylmorpholine-4-carboxamide]"
7,0.1 to 1,"N#CN1CC[C@@H](NC(=O)N2CCCN(Cc3c(F)cccc3Cl)CC2)C1 [Example 137, (R)-4-(2-chloro-6-fluorobenzyl)-N-(1-cyanopyrrolidin-3-yl)-1,4-diazepane-1-carboxamide]"
8,0.1 to 1,"N#CN1CC[C@@H](NC(=O)N2CCCN(Cc3ccccc3)CC2)C1 [Example 138, (R)-4-benzyl-N-(1-cyanopyrrolidin-3-yl)-1,4-diazepane-1-carboxamide]"
9,0.1 to 1,"N#CN1CC[C@@H](NC(=O)N2CCc3c([nH]c4ccccc34)C2)C1 [Example 139, (R)-N-(1-cyanopyrrolidin-3-yl)-1,3,4,9-tetrahydro-2H-pyrido[3,4-b]indole-2-carboxamide]"
10,0.1 to 1,"C[C@@H]1CN(c2cc(C(=O)N[C@@H]3CCN(C#N)C3)c(F)cn2)C[C@H](C)O1 [Example 140, N-((R)-1-cyanopyrrolidin-3-yl)-2-((2S,6R)-2,6-dimethylmorpholino)-5-fluoroisonicotinamide]"
11,0.1 to 1,"N#CN1CC[C@@H](NC(=O)c2cc(N3Cc4ccccc4C3)ncc2F)C1 [Example 141, (R)-N-(1-cyanopyrrolidin-3-yl)-5-fluoro-2-(isoindolin-2-yl)isonicotinamide]"
12,< 0.1,"N#CN1CC[C@@H](NC(=O)c2ccc(Nc3ncccn3)c(F)c2)C1 [Example 142, (R)-N-(1-cyanopyrrolidin-3-yl)-3-fluoro-4-(pyrimidin-2-ylamino)benzamide]"
13,< 0.1,"N#CN1CC[C@@H](NC(=O)c2ccc(N3CCCC3)cc2F)C1 [Example 143, (R)-N-(1-cyanopyrrolidin-3-yl)-2-fluoro-4-(pyrrolidin-1-yl)benzamide]"
14,< 0.1,"N#CN1CC[C@@H](NC(=O)c2cc(F)c(N3CCCC3)cc2F)C1 [Example 145, (R)-N-(1-cyanopyrrolidin-3-yl)-2,5-difluoro-4-(pyrrolidin-1-yl)benzamide]"
15,0.1 to 1,"CO[C@@H]1CCN(c2ccc(C(=O)N[C@@H]3CCN(C#N)C3)c(F)c2)C1 [Example 146, N-((R)-1-cyanopyrrolidin-3-yl)-2-fluoro-4-((R)-3-methoxypyrrolidin-1-yl)benzamide]"
16,0.1 to 1,"COc1cc(C(=O)N[C@@H]2CCN(C#N)C2)ccc1Nc1ncccn1 [Example 147, (R)-N-(1-cyanopyrrolidin-3-yl)-3-methoxy-4-(pyrimidin-2-ylamino)benzamide]"
17,0.1 to 1,"COc1cc(C(=O)N[C@@H]2CCN(C#N)C2)ccc1Nc1nccc(C)n1 [Example 148, (R)-N-(1-cyanopyrrolidin-3-yl)-3-methoxy-4-((4-methylpyrimidin-2-yl)amino)benzamide]"
18,< 0.1,"COc1ccnc(Nc2ccc(C(=O)N[C@@H]3CCN(C#N)C3)c(F)c2)n1 [Example 149, (R)-N-(1-cyanopyrrolidin-3-yl)-2-fluoro-4-((4-methoxypyrimidin-2-yl)amino)benzamide]"
19,0.1 to 1,"Cc1cc(C(=O)N[C@@H]2CCN(C#N)C2)nn1C(C)c1ccccc1 (stereo partly drawn) [Example 150, N-((R)-1-cyanopyrrolidin-3-yl)-5-methyl-1-(1-phenylethyl)-1H-pyrazole-3-carboxamide]"
20,0.1 to 1,"Cc1cc(C(=O)N[C@@H]2CCN(C#N)C2)nn1Cc1ccccn1 [Example 151, (R)-N-(1-cyanopyrrolidin-3-yl)-5-methyl-1-(pyridin-2-ylmethyl)-1H-pyrazole-3-carboxamide]"
21,0.1 to 1,"N#CN1CC[C@@H](NC(=O)c2ccc(-c3ccnnc3)cc2F)C1 [Example 152, (R)-N-(1-cyanopyrrolidin-3-yl)-2-fluoro-4-(pyridazin-4-yl)benzamide]"
22,0.1 to 1,"CN(C(=O)c1cn2cc(-c3cnn(C)c3)ccc2n1)[C@@H]1CCN(C#N)C1 [Example 156, (R)-N-(1-cyanopyrrolidin-3-yl)-N-methyl-6-(1-methyl-1H-pyrazol-4-yl)imidazo[, 2-a]pyridine-2-carboxamide]"
23,< 0.1,"CN(C(=O)c1cc2cc(-c3cnn(C)c3)ccc2[nH]1)[C@@H]1CCN(C#N)C1 [Example 157, (R)-N-(1-cyanopyrrolidin-3-yl)-N-methyl-5-(1-methyl-1H-pyrazol-4-yl)-1H-indole-2-carboxamide]"
24,0.1 to 1,"Cc1noc(C)c1-c1ccc2[nH]c(C(=O)N(C)[C@@H]3CCN(C#N)C3)nc2c1 [Example 158, (R)-N-(1-cyanopyrrolidin-3-yl)-6-(3,5-dimethylisoxazol-4-yl)-N-methyl-1H-benzo[d]imidazole-2-carboxamide]"
25,0.1 to 1,"Cn1cc(-c2ccn3c(C(=O)N[C@@H]4CCN(C#N)C4)cnc3c2)cn1 [Example 159, (R)-N-(1-cyanopyrrolidin-3-yl)-7-(1-methyl-1H-pyrazol-4-yl)imidazo[1,2-a]pyridine-3-carboxamide]"
26,< 0.1,"N#Cc1cccc(-c2ccn3c(C(=O)N[C@@H]4CCN(C#N)C4)cnc3c2)c1 [Example 160, (R)-7-(3-cyanophenyl)-N-(1-cyanopyrrolidin-3-yl)imidazo[1,2-a]pyridine-3-carboxamide]"

row,Structure (SMILES),IC50 [µM]
1,"CC(C)Cn1nc(C(=O)N[C@@H]2CCN(C#N)C2)c2ccc(-c3cnn(C)c3)cc21 [Example 153, (R)-N-(1-cyanopyrrolidin-3-yl)-1-isobutyl-6-(1-methyl-1H-pyrazol-4-yl)-1H-indazole-3-carboxamide]",0.1 to 1
2,"Cc1noc(C)c1-c1ccc2c(C(=O)N[C@@H]3CCN(C#N)C3)nn(CC(C)C)c2c1 [Example 154, (R)-N-(1-cyanopyrrolidin-3-yl)-6-(3,5-dimethylisoxazol-4-yl)-1-isobutyl-1H-indazole-3-carboxamide]",< 0.1
3,"Cc1noc(C)c1-c1ccc2c(C(=O)N[C@@H]3CCN(C#N)C3)nn(CC3CC3)c2c1 [Example 155, (R)-N-(1-cyanopyrrolidin-3-yl)-1-(cyclopropylmethyl)-6-(3,5-dimethylisoxazol-4-yl)-1H-indazole-3-carboxamide]",< 0.1
4,"Cc1cc(-c2ccn3c(C(=O)N(C)[C@@H]4CCN(C#N)C4)cnc3c2)ccn1 [Example 161, (R)-N-(1-cyanopyrrolidin-3-yl)-N-methyl-7-(2-methylpyridin-4-yl)imidazo[1,2-a]pyridine-3-carboxamide]",0.1 to 1
